In EPA's aquatic toxicity sets:

Key:
Daphnia magna = experiment: 48 h LC50 (-log10 mol/L); higher = more toxic
Pimephales promelas = experiment: 96 h LC50 (-log10 mol/L); higher = more toxic
Tetrahymena pyriformis = experiment: 48 h IGC50 (-log10 mol/L); higher = more toxic

Row | Structure (SMILES) | 48 h LC50 (-log10 mol/L) (Daphnia magna) | 96 h LC50 (-log10 mol/L) (Pimephales promelas) | 48 h IGC50 (-log10 mol/L) (Tetrahymena pyriformis)
1 | CC=O | 0.55 | 3.08 | 
2 | Clc1ccc(Cl)cc1 | 4.14 |  | 3.53
3 | COP(=S)(OC)SCN1C(=O)c2ccccc2C1=O | 5.6 | 4.59 | 
4 | C=C(C)[C@H]1Cc2c(ccc3c2O[C@@H]2COc4cc(OC)c(OC)cc4[C@@H]2C3=O)O1 | 8.03 | 7.82 | 
5 | CCOP(=S)(OCC)SCSC(C)(C)C | 8.21 | 6.81 | 
6 | CCOCC | 1.73 | 1.46 | 
7 | CCC1(c2ccccc2)C(=O)NC(=O)NC1=O | 2.2 | 2.68 | 
8 | Clc1cccc(-c2ccccc2)c1 | 5.64 | 4.38 | 
9 | CCc1ccccc1 | 4.5 | 3.95 | 
10 | c1ccc2c(c1)-c1cccc3cccc-2c13 | 6.28 | 6.77 | 
11 | OCCCl | 2.58 |  | 1.58
12 | CC(=O)Nc1ccc(O)cc1 | 4.22 |  | 2.18
13 | OCCOCCOCCO | 0.46 | 0.309 | 
14 | c1ccncc1 | 1.81 |  | 1.68
15 | C=CC#N | 3.78 | 3.57 | 
16 | CNC(=S)NC | 3.83 |  | 1.89
17 | CC(Cl)CCl (centres undefined) | 3.34 | 2.93 | 
18 | O=Cc1ccc(O)c(O)c1O | 3.67 |  | 3
19 | O=C(O)COc1ccc(Cl)cc1Cl | 3.78 | 2.92 | 
20 | S=C=NCc1ccccc1 | 6.54 |  | 5.74
21 | Nc1c(Cl)c(Cl)nc(C(=O)O)c1Cl | 3.64 | 3.64 | 
22 | O=[N+]([O-])c1ccc(O)cc1 | 4.02 |  | 4.42
23 | ClCC(Cl)Cl | 3.49 | 3.21 | 
24 | CC(C)c1ccccc1 | 3.77 |  | 3.69
25 | ClC1=C(Cl)[C@]2(Cl)[C@@H]3[C@@H]4C[C@@H]([C@H]5O[C@@H]45)[C@@H]3[C@@]1(Cl)C2(Cl)Cl | 6.51 | 7.21 | 
26 | O=[N+]([O-])c1cccc(Cl)c1Cl | 4.62 |  | 4.07

Row | Structure (SMILES) | 48 h LC50 (-log10 mol/L) (Daphnia magna) | 96 h LC50 (-log10 mol/L) (Pimephales promelas) | 48 h IGC50 (-log10 mol/L) (Tetrahymena pyriformis)
27 | ClC(Cl)C(Cl)Cl | 3.46 | 3.92 | 
28 | c1ccc(C2CO2)cc1 (centres undefined) | 4.02 | 4 | 
29 | CCN(CC)C(=O)c1cccc(C)c1 | 3.08 | 3.24 | 
30 | O=C1C2(Cl)C3(Cl)C4(Cl)C(Cl)(Cl)C5(Cl)C3(Cl)C1(Cl)C5(Cl)C24Cl (centres undefined) | 6.39 | 6.11 | 
31 | Cc1ccc([N+](=O)[O-])cc1C | 3.98 |  | 3.59
32 | CC(C)CO | 1.82 | 1.7 | 
33 | CC(N)=S | 3.64 | 2.44 | 
34 | CNC(=O)ON=C(C)SC | 6.96 | 4.89 | 
35 | O=P(Oc1ccccc1)(Oc1ccccc1)Oc1ccccc1 | 5.51 |  | 4.81
36 | CCCN(CCC)c1c([N+](=O)[O-])cc(C(C)C)cc1[N+](=O)[O-] | 7.01 | 5.85 | 
37 | CCC(=O)O | 3.17 |  | 2.49
38 | O=[N+]([O-])c1cc(Cl)cc(Cl)c1 | 4.43 |  | 4.13
39 | Oc1ccc2ccccc2c1 | 4.61 | 4.62 | 
40 | O=C(O)c1ccccc1O | 3.07 |  | 2.49
41 | O=Cc1ccccc1 | 3.98 |  | 2.8
42 | Cc1cc(Cl)ccc1O | 5.69 |  | 3.7
43 | CNC(N)=S | 3.98 |  | 1.63
44 | c1ccsc1 | 2.42 |  | 1.56
45 | CCCCC(CC)C(=O)O (centres undefined) | 3.08 |  | 3.08
46 | Cc1ccccc1N | 5.31 |  | 2.84
47 | c1ccc2c(c1)oc1ccccc12 | 5 |  | 4.42
48 | Cc1ccc(O)c(C)c1 | 4.76 |  | 3.14
49 | CCCCCCCCc1ccc(O)cc1 | 6.36 |  | 
50 | CCCC(=O)Nc1ccc(OCC(O)CNC(C)C)c(C(C)=O)c1 (centres undefined) | 3.82 |  | 
51 | CC(C)(C)C(=O)Cl | 2.58 |  | 
